Measurements as given in PubChem BioAssay (NCI).
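Cultured in 96-well plates, cells were exposed to test compound for 48 hours across five concentrations. At the TGI there is no net growth.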

Key:
Assay in all cases: NCI anticancer screen, dose series, 48 h
SN12C renal = tested on: SN12C renal
HS 578T breast = tested on: HS 578T breast
OVCAR-5 ovarian = tested on: OVCAR-5 ovarian
M14 melanoma = tested on: M14 melanoma
OVCAR-3 ovarian = tested on: OVCAR-3 ovarian
SK-MEL-28 melanoma = tested on: SK-MEL-28 melanoma
RXF 393 renal = tested on: RXF 393 renal
SF-295 CNS = tested on: SF-295 CNS
KM12 colon = tested on: KM12 colon
MDA-MB-435 = tested on: MDA-MB-435
OVCAR-4 ovarian = tested on: OVCAR-4 ovarian
CCRF-CEM leukemia = tested on: CCRF-CEM leukemia
IGROV1 ovarian = tested on: IGROV1 ovarian
BT-549 breast = tested on: BT-549 breast
SK-MEL-5 melanoma = tested on: SK-MEL-5 melanoma
RPMI-8226 leukemia = tested on: RPMI-8226 leukemia
PC-3 prostate = tested on: PC-3 prostate
HOP-92 NSCLC = tested on: HOP-92 NSCLC
NCI/ADR-RES ovarian = tested on: NCI/ADR-RES ovarian
HCT-15 colon = tested on: HCT-15 colon
MOLT-4 leukemia = tested on: MOLT-4 leukemia
CAKI-1 renal = tested on: CAKI-1 renal
OVCAR-8 ovarian = tested on: OVCAR-8 ovarian
NCI-H460 lung = tested on: NCI-H460 lung
SNB-75 CNS = tested on: SNB-75 CNS
NCI-H522 lung = tested on: NCI-H522 lung
U251 CNS = tested on: U251 CNS
MDA-N = tested on: MDA-N
A498 renal = tested on: A498 renal
HOP-62 NSCLC = tested on: HOP-62 NSCLC
SK-MEL-2 melanoma = tested on: SK-MEL-2 melanoma
NCI-H226 lung = tested on: NCI-H226 lung
MALME-3M melanoma = tested on: MALME-3M melanoma
NCI-H23 lung = tested on: NCI-H23 lung
SR leukemia = tested on: SR leukemia
UO-31 renal = tested on: UO-31 renal
K-562 leukemia = tested on: K-562 leukemia
DU-145 prostate = tested on: DU-145 prostate
HT29 colon = tested on: HT29 colon
SNB-19 CNS = tested on: SNB-19 CNS
UACC-62 melanoma = tested on: UACC-62 melanoma
MCF7 breast = tested on: MCF7 breast
SK-OV-3 ovarian = tested on: SK-OV-3 ovarian
HCT-116 colon = tested on: HCT-116 colon
SF-539 CNS = tested on: SF-539 CNS
SF-268 CNS = tested on: SF-268 CNS
COLO 205 colon = tested on: COLO 205 colon
MDA-MB-231 breast = tested on: MDA-MB-231 breast
LOX IMVI melanoma = tested on: LOX IMVI melanoma
T-47D breast = tested on: T-47D breast
786-0 renal = tested on: 786-0 renal
HL-60(TB) leukemia = tested on: HL-60(TB) leukemia
ACHN renal = tested on: ACHN renal
HCC-2998 colon = tested on: HCC-2998 colon

`COc1ccc2c(c1)C(=O)/C(=C/c1ccccc1)C2` gave a TGI (SN12C renal) greater than 100 µM, a TGI (HS 578T breast) greater than 100 µM and a TGI (OVCAR-5 ovarian) greater than 100 µM. The TGI (M14 melanoma) was greater than 100 µM, the TGI (OVCAR-3 ovarian) was greater than 100 µM and the TGI (SK-MEL-28 melanoma) was greater than 100 µM. It also gave a TGI (RXF 393 renal) greater than 100 µM, a TGI (SF-295 CNS) greater than 100 µM and a TGI (KM12 colon) greater than 100 µM. It also gave a TGI (MDA-MB-435) greater than 100 µM, a TGI (OVCAR-4 ovarian) greater than 100 µM and a TGI (CCRF-CEM leukemia) greater than 100 µM. For the same compound, the TGI (IGROV1 ovarian) was greater than 100 µM, the TGI (BT-549 breast) was greater than 100 µM and the TGI (SK-MEL-5 melanoma) was greater than 100 µM. For the same compound, the TGI (RPMI-8226 leukemia) was greater than 100 µM, the TGI (PC-3 prostate) was greater than 100 µM and the TGI (HOP-92 NSCLC) was greater than 100 µM. The TGI (NCI/ADR-RES ovarian) was 88.2 µM, the TGI (HCT-15 colon) was greater than 100 µM and the TGI (MOLT-4 leukemia) was greater than 100 µM. The TGI (CAKI-1 renal) was 60.1 µM, the TGI (OVCAR-8 ovarian) was greater than 100 µM and the TGI (NCI-H460 lung) was greater than 100 µM. It also gave a TGI (SNB-75 CNS) greater than 100 µM, a TGI (NCI-H522 lung) greater than 100 µM and a TGI (U251 CNS) greater than 100 µM. It also gave a TGI (MDA-N) greater than 100 µM, a TGI (A498 renal) greater than 100 µM and a TGI (HOP-62 NSCLC) greater than 100 µM. For the same compound, the TGI (SK-MEL-2 melanoma) was greater than 100 µM, the TGI (NCI-H226 lung) was greater than 100 µM and the TGI (MALME-3M melanoma) was greater than 100 µM. The TGI (NCI-H23 lung) was greater than 100 µM, the TGI (SR leukemia) was greater than 100 µM and the TGI (UO-31 renal) was greater than 100 µM. It also gave a TGI (K-562 leukemia) greater than 100 µM, a TGI (DU-145 prostate) greater than 100 µM and a TGI (HT29 colon) greater than 100 µM. For the same compound, the TGI (SNB-19 CNS) was greater than 100 µM, the TGI (UACC-62 melanoma) was greater than 100 µM and the TGI (MCF7 breast) was greater than 100 µM. The TGI (SK-OV-3 ovarian) was greater than 100 µM.
In the case of `Cn1c(=O)oc2cc(C(=O)CN3CCN(Cc4ccc5c(c4)OCO5)CC3)c(Cl)cc21`, the TGI (SN12C renal) is reported as greater than 100 µM, the TGI (HCT-116 colon) is reported as greater than 100 µM and the TGI (HS 578T breast) is reported as greater than 100 µM. The TGI (OVCAR-5 ovarian) was greater than 100 µM, the TGI (RXF 393 renal) was greater than 100 µM and the TGI (SF-539 CNS) was greater than 100 µM. The TGI (SF-295 CNS) was greater than 100 µM, the TGI (SF-268 CNS) was greater than 100 µM and the TGI (COLO 205 colon) was greater than 100 µM. The TGI (CCRF-CEM leukemia) was greater than 100 µM, the TGI (IGROV1 ovarian) was greater than 100 µM and the TGI (SK-MEL-5 melanoma) was greater than 100 µM. The TGI (RPMI-8226 leukemia) was greater than 100 µM, the TGI (PC-3 prostate) was greater than 100 µM and the TGI (NCI/ADR-RES ovarian) was greater than 100 µM. It also gave a TGI (HCT-15 colon) greater than 100 µM, a TGI (MOLT-4 leukemia) greater than 100 µM and a TGI (MDA-MB-231 breast) greater than 100 µM. For the same compound, the TGI (CAKI-1 renal) was greater than 100 µM, the TGI (NCI-H460 lung) was greater than 100 µM and the TGI (SNB-75 CNS) was greater than 100 µM. The TGI (U251 CNS) was greater than 100 µM, the TGI (MDA-N) was greater than 100 µM and the TGI (HOP-62 NSCLC) was greater than 100 µM. For the same compound, the TGI (SK-MEL-2 melanoma) was greater than 100 µM, the TGI (LOX IMVI melanoma) was greater than 100 µM and the TGI (T-47D breast) was greater than 100 µM. The TGI (786-0 renal) was greater than 100 µM, the TGI (MALME-3M melanoma) was greater than 100 µM and the TGI (NCI-H23 lung) was greater than 100 µM. For the same compound, the TGI (HL-60(TB) leukemia) was greater than 100 µM, the TGI (SR leukemia) was greater than 100 µM and the TGI (UO-31 renal) was greater than 100 µM. The TGI (K-562 leukemia) was greater than 100 µM, the TGI (ACHN renal) was greater than 100 µM and the TGI (DU-145 prostate) was greater than 100 µM. The TGI (SNB-19 CNS) was greater than 100 µM, the TGI (UACC-62 melanoma) was greater than 100 µM and the TGI (MCF7 breast) was greater than 100 µM. The TGI (SK-OV-3 ovarian) was greater than 100 µM and the TGI (HCC-2998 colon) was greater than 100 µM.
